Assay results published in US7747390B2, “Digital cell” (National Institute of Advanced Industrial Science and …, priority 2003, dated 2010).

What was measured:
[1] = tested on: HEK293 cells; experiment: Solid phase transfection with actin-like acting substances (FIG. 1); format: cell-based, human; conditions: pEGFP-N1, Effectene reagent, gelatin as control
Experimental: (§1) The final concentration of DNA was adjusted to 1 μg/μL. An actin-like acting substance was preserved as a stock having a concentration of 10 μg/μL in ddH2O. All dilutions were made using PBS, ddH2O, or Dulbecco's MEM. A series of dilutions, for example, 0.2 μg/μL, 0.27 μg/μL, 0.4 μg/μL, 0.53 μg/μL, 0.6 μg/μL, 0.8 μg/μL, 1.0 μg/μL, 1.07 μg/μL, 1.33 μg/μL, and the like, were formulated.
(§2) Transfection reagents and DNA were mixed to form a DNA-transfection reagent complex. Formation of the complex requires a certain period of time. Therefore, the mixture was spotted onto a solid phase support (e.g., a poly-L-lysine slide) using an arrayer. In Example 2, as a solid phase support, an APS slide, a MAS slide, and an uncoated slide were used as well as a poly-L-lysine slide. These slides are available from Matsunami Glass (Kishiwada, Japan) or the like.
(§3) 300 μL of DNA concentrated buffer (EC buffer)+16 μL of an enhancer were mixed in an Eppendorf tube. The mixture was mixed with a Vortex, followed by incubation for 5 minutes. 50 μL of a transfection reagent (Effectene, etc.) was added to the mixture, followed by mixing by pipetting. To apply a transfection reagent, an annular wax barrier was formed around the spots on the slide. 366 μL of the mixture was added to the spot region surrounded by the wax, followed by incubation at room temperature for 10 to 20 minutes. Thereby, the fixation to the support was manually achieved.
(§4) The growing cells were distributed to a concentration of 10^7 cells/25 mL. The cells were plated on the slide in a 100×100×15 mm squared Petri dish or a 100 mm (radius)×15 mm circular dish. Transfection was conducted for about 40 hours. This period of time corresponded to about 2 cell cycles. The slide was treated for immunofluorescence.
(§5) To quantify transfection efficiency, the present inventors use a DNA microarray scanner (GeneTAC UC4×4, Genomic Solutions Inc., MI). Total fluorescence intensity (arbitrary unit) was measured, and thereafter, fluorescence intensity per unit surface area was calculated.

[2] = tested on: cells on transfection array; experiment: Transfection at various fibronectin concentrations on coated and uncoated slides (FIG. 7); format: cell-based
Experimental: as §1, §2, §3, §4, §5

[3] = tested on: human mesenchymal stem cells (hMSC); experiment: Cell adhesion profile and cross-sectional confocal observation in presence or absence of fibronectin (FIGS. 8-10); format: cell-based
[4] = tested on: cells resistant or sensitive to the anticancer agent; experiment: Time-lapse profiles of cells exposed to anticancer agent; format: cell-based; conditions: cisplatin 1 μM, 5 μM, 10 μM in medium
Experimental: In this example, cisplatin was used as an exemplary anticancer agent and was mixed into the medium of exposed cells. The concentration of the anticancer agent was selected as appropriate, such as 1 μM, 5 μM, 10 μM, and the like, to observe the reaction of the cells. Cisplatin was applied to cells resistant or sensitive to the anticancer agent. Time-lapse observation was conducted to produce profiles as in the above-described examples.

[5] = tested on: cells on transfection array; experiment: Transfection efficiency when fibronectin fragments were used (FIGS. 2-4); format: cell-based; conditions: fibronectin fragments or RGD peptide as actin-like acting substance
Experimental: as §1, §2
300 μL of DNA concentrated buffer (EC buffer)+16 μL of an enhancer were mixed in an Eppendorf tube. The mixture was mixed with a Vortex, followed by incubation for 5 minutes. 50 μL of a transfection reagent (Effectene, etc.) was added to the mixture, followed by mixing by pipetting. […]
as §5

## fibronectin
[1]
  transfection (transfection efficiency): transfection took place to a significant level
[2]; APS coating
  fibronectin concentration at which the effect was further increased: > 1.07 µg/µL
[2]; PLL coating
  fibronectin concentration at which transfection efficiency reached a plateau: more than 0.53 μg/μL
[2]; absence of coating
  fibronectin concentration at which transfection efficiency reached a plateau: more than 0.53 μg/μL
[2]; fibronectin 0, 0.27, 0.53, 0.8, 1.07, 1.33 μg/μL, FIG. 7
  transfection efficiency versus fibronectin concentration: increased with an increase in fibronectin concentration
[3]; in the presence of fibronectin, FIG. 10
  surface area of the nucleus: significantly increased
[3]; initial 3 hours of culture in the presence of fibronectin, FIG. 9
  extension of adherent cells: full extension of cells

## N.N.[Cl][Pt][Cl] [cisplatin]
[4]
  time-lapse profiles: varied depending on the difference in cisplatin concentration and resistance/sensitivity

## gelatin [reference compound]
[1]
  transfection (transfection efficiency): not very successful

## RGD peptide (tripeptide) [reference compound]
[5]
  transfection activity: increased transfection efficiency was not exhibited
[1]
  transfection (transfection efficiency): substantially no effect

## laminin
[1]
  transfection (transfection efficiency): transfection took place to a significant level
